Reference: patent US11279687B2, “Compounds and compositions for the inhibition of NAMPT” (Valo Health, Inc., priority 2010, dated 2022)
Read-outs that look alike come from different tables or passages of the source.

Columns and labels:
[1] = target: NAMPT (Homo sapiens (Human), UniProt P43490); test: NAMPT biochemical inhibition assay (NMN quantified by mass spectrometry); settings: NAMPT biochemical inhibition; read-out: Biochem IC50
[2] = system: A2780 cells; test: In-vitro cell proliferation assay (SRB), A2780 cells; assay type: cell-based; settings: read-out: A2780 IC50;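 also: viable cell number read as SRB absorbance, background from media-only wells subtracted, IC50 interpolated from percent inhibition at two bracketing compound concentrations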
[3] = Homo sapiens, A2780, 72 h, A2780 cells, 72 hours, SRB

Sequence of NAMPT (P43490 whole entry): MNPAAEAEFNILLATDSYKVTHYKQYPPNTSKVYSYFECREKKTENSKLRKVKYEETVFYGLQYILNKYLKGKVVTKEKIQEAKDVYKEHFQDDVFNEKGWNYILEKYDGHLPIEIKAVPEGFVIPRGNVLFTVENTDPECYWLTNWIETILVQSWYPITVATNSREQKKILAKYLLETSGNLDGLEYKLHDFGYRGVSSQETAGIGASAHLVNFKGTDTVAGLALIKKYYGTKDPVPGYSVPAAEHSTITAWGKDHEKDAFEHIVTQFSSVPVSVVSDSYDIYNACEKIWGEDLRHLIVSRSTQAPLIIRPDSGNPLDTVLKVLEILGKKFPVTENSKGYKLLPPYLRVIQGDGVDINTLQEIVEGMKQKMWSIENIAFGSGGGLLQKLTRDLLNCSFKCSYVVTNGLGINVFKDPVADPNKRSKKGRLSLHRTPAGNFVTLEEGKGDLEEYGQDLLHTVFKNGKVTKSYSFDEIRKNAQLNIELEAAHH

SMILES	IC50 [1] [nM]	IC50 ([2]; Homo sapiens, A2780, 72 h) [nM]	IC50 [2, 3] [nM]	IC50 ([2]; A2780 cells, 72 hours, SRB) [nM]
O=C(NCc1cccnc1)Nc1ccc(S(=O)(=O)N2CCC(N3C(=O)Cc4ccccc43)CC2)cc1 [1-{4-[4-(2-oxo-2,3-dihydro-1H-indol-1-yl)piperidine-1-sulfonyl]phenyl}-3-(pyridin-3-ylmethyl)urea]	3	58		
O=C(NCc1cccnc1)Nc1ccc(S(=O)(=O)N2CCN(C(=O)Cc3ccccc3)CC2)cc1 [1-{4-[4-(2-phenylacetyl)piperazine-1-sulfonyl]phenyl}-3-(pyridin-3-ylmethyl)urea]	3		932	
O=C(NCc1cccnc1)Nc1ccc(S(=O)(=O)N2CCC(N3CCCCCC3)CC2)cc1 [1-{4-[4-(azepan-1-yl)piperidine-1-sulfonyl]phenyl}-3-(pyridin-3-ylmethyl)urea]	5		6	
O=C(NCc1cccnc1)Nc1ccc(S(=O)(=O)N2CCC(N3CCCCC3)CC2)cc1 [1-{4-[4-(piperidin-1-yl)piperidine-1-sulfonyl]phenyl}-3-(pyridin-3-ylmethyl)urea]	7		13	
O=C(NCc1cccnc1)Nc1ccc(S(=O)(=O)c2ccc(N3CCOCC3)nc2)cc1 [1-{4-[6-(morpholin-4-yl)pyridine-3-sulfonyl]phenyl}-3-(pyridin-3-ylmethyl)urea]	3.6		30.4	
O=C(NCc1cccnc1)Nc1ccc(S(=O)(=O)NC2(c3ccccc3)CCCC2)cc1 [1-{4-[(1-phenylcyclopentyl)sulfamoyl]phenyl}-3-(pyridin-3-ylmethyl)urea]	29		180	
O=C(NCc1cccnc1)Nc1ccc(S(=O)(=O)N2CC[C@@]3(C2)OC(=O)c2ccccc23)cc1 [1-{4-[(1R)-3-oxo-3H-spiro[2-benzofuran-1,3′-pyrrolidine]-1′-ylsulfonyl]phenyl}-3-(pyridin-3-ylmethyl)urea]	5		41	
O=C(NCc1cccnc1)Nc1ccc(S(=O)(=O)c2ccccc2Oc2ccccc2)cc1 [1-{4-[(2-phenoxybenzene)sulfonyl]phenyl}-3-(pyridin-3-ylmethyl)urea]	2		8	
O=C(NCc1cccnc1)Nc1ccc(S(=O)(=O)Nc2ccccc2-c2ccccc2)cc1 [1-{4-[(2-phenylphenyl)sulfamoyl]phenyl}-3-(pyridin-3-ylmethyl)urea]	3		47	
O=C(NCc1cccnc1)Nc1ccc(S(=O)(=O)N2CCCC[C@@H]2CN2CCOCC2)cc1 [1-{4-[(2R)-2-(morpholin-4-ylmethyl)piperidine-1-sulfonyl]phenyl}-3-(pyridin-3-ylmethyl)urea]	51		81	
O=C(NCc1cccnc1)Nc1ccc(S(=O)(=O)N2CCCC[C@@H]2Cc2ccccc2)cc1 [1-{4-[(2R)-2-benzylpiperidine-1-sulfonyl]phenyl}-3-(pyridin-3-ylmethyl)urea]	4		24	
O=C(NCc1cccnc1)Nc1ccc(S(=O)(=O)Nc2cccc(C(=O)c3ccccc3)c2)cc1 [1-{4-[(3-benzoylphenyl)sulfamoyl]phenyl}-3-(pyridin-3-ylmethyl)urea]	4.4		1000 to 10000	
N#Cc1cccc(S(=O)(=O)c2ccc(NC(=O)NCc3cccnc3)cc2)c1 [1-{4-[(3-cyanobenzene)sulfonyl]phenyl}-3-(pyridin-3-ylmethyl)urea]	8		100 to 1000	
O=C(NCc1cccnc1)Nc1ccc(S(=O)(=O)c2cccc(-c3ccccc3)c2)cc1 [1-{4-[(3-phenylbenzene)sulfonyl]phenyl}-3-(pyridin-3-ylmethyl)urea]	6.8		100 to 1000	
N#Cc1ccc(S(=O)(=O)c2ccc(NC(=O)NCc3cccnc3)cc2)cc1 [1-{4-[(4-cyanobenzene)sulfonyl]phenyl}-3-(pyridin-3-ylmethyl)urea]	7.6		100 to 1000	
O=C(NCc1cccnc1)Nc1ccc(S(=O)(=O)c2ccc(-c3ccccc3)cc2)cc1 [1-{4-[(4-phenylbenzene)sulfonyl]phenyl}-3-(pyridin-3-ylmethyl)urea]	5.8		100 to 1000	
O=C(NCc1cccnc1)Nc1ccc(S(=O)(=O)NCC2CCCCC2)cc1 [1-{4-[(cyclohexylmethyl)sulfamoyl]phenyl}-3-(pyridin-3-ylmethyl)urea]	4		181	
O=C(NCc1cccnc1)Nc1ccc(S(=O)(=O)NCc2ccccn2)cc1 [1-{4-[(pyridin-2-ylmethyl)sulfamoyl]phenyl}-3-(pyridin-3-ylmethyl)urea]	8.4		1000 to 10000	
O=C(NCc1ccc(S(=O)(=O)c2ccccc2)cc1)Nc1ccc2ncccc2c1 [1-{[4-(benzenesulfonyl)phenyl]methyl}-3-(quinolin-6-yl)urea]	2260		> 30000	

SMILES	IC50 [1] [nM]	IC50 ([2]; Homo sapiens, A2780, 72 h) [nM]	IC50 [2, 3] [nM]	IC50 ([2]; A2780 cells, 72 hours, SRB) [nM]
CC(C)NC(=O)c1cc(S(=O)(=O)c2ccc(NC(=O)NCc3cccnc3)cc2)ccc1F [2-fluoro-N-(propan-2-yl)-5-[(4-{[(pyridin-3-ylmethyl)carbamoyl]amino}benzene)sulfonyl]benzamide]	20.9		100 to 1000	
CC(C)C(=O)NC1CCN(S(=O)(=O)c2ccc(NC(=O)NCc3cccnc3)cc2)CC1 [2-methyl-N-{1-[(4-{[(pyridin-3-ylmethyl)carbamoyl]amino}benzene)sulfonyl]piperidin-4-yl}propanamide]	5			123
CC(C)C(=O)Nc1cccc(S(=O)(=O)c2ccc(NC(=O)NCc3cccnc3)cc2)c1 [2-methyl-N-{3-[(4-{[(pyridin-3-ylmethyl)carbamoyl]amino}benzene)sulfonyl]phenylJpropanamide]	1.2			10.1
COc1cccc(C2(N3CCN(S(=O)(=O)c4ccc(NC(=O)NCc5cccnc5)cc4)CC3)CCC(C)CC2)c1 (stereo not shown) [3-(4-{4-[1-(3-methoxyphenyl)-4-methylcyclohexyl]piperazine-1-sulfonyl}phenyl)-1-(pyridin-3-ylmethyl)urea]	4		5	
O=C(NCc1cccnc1)Nc1ccc(S(=O)(=O)N2CCN(C(=O)Cc3ccc(Cl)c(Cl)c3)CC2)cc1 [3-(4-{4-[2-(3,4-dichlorophenyl)acetyl]piperazine-1-sulfonyl[phenyl)-1-(pyridin-3-ylmethyl)urea]	3.7			1000 to 10000
CCN(CC)CCN1CCN(S(=O)(=O)c2ccc(NC(=O)NCc3cccnc3)cc2)CC1 [3-(4-{4-[2-(diethylamino)ethyl]piperazine-1-sulfonyl}phenyl)-1-(pyridin-3-ylmethyl)urea]	4		23	
O=C(NCc1cccnc1)Nc1ccc(S(=O)(=O)N2CCN(c3ncc(C(F)(F)F)cc3Cl)CC2)cc1 [3-(4-{4-[3-chloro-5-(trifluoromethyl)pyridin-2-yl]piperazine-1-sulfonyl}phenyl)-1-(pyridin-3-ylmethyl)urea]	5		128	
O=C(NCc1cccnc1)Nc1ccc(S(=O)(=O)N2CCC(C(=O)c3ccc(F)cc3)CC2)cc1 [3-(4-{4-[(4-fluorophenyl)carbonyl]piperidine-1-sulfonyl}phenyl)-1-(pyridin-3-ylmethyl)urea]	10		206	
O=C(NCc1cccnc1)Nc1ccc(S(=O)(=O)N2CCC(C(=O)N3CCOCC3)CC2)cc1 [3-(4-{4-[(morpholin-4-yl)carbonyl]piperidine-1-sulfonyl}phenyl)-1-(pyridin-3-ylmethyl)urea]	8		40	
O=C(NCc1cccnc1)Nc1ccc(S(=O)(=O)N2CCN(C(c3ccc(F)cc3)c3ccc(F)cc3)CC2)cc1 [3-(4-{4-[bis(4-fluorophenyl)methyl]piperazine-1-sulfonyl}phenyl)-1-(pyridin-3-ylmethyl)urea]	5		7	
CN1CCCC2(CCCN(S(=O)(=O)c3ccc(NC(=O)NCc4cccnc4)cc3)C2)C1 (stereo not shown) [3-(4-{8-methyl-2,8-diazaspiro[5.5]undecane-2-sulfonyl}phenyl)-1-(pyridin-3-ylmethyl)urea]	1		1	
O=C(NCc1cccnc1)Nc1ccc(S(=O)(=O)Nc2cccnc2Oc2ccc(F)cc2)cc1 [3-(4-{[2-(4-fluorophenoxy)pyridin-3-yl]sulfamoyl}phenyl)-1-(pyridin-3-ylmethyl)urea]	11		149	
O=C(NCc1cccnc1)Nc1ccc(S(=O)(=O)Nc2ccccc2OC(F)F)cc1 [3-(4-{[2-(difluoromethoxy)phenyl]sulfamoyl}phenyl)-1-(pyridin-3-ylmethyl)urea]	0.6		31	
COCc1ccccc1S(=O)(=O)c1ccc(NC(=O)NCc2cccnc2)cc1 [3-(4-{[2-(methoxymethyl)benzene]sulfonyl}phenyl)-1-(pyridin-3-ylmethyl)urea]	6		39	
O=C(NCc1cccnc1)Nc1ccc(S(=O)(=O)Nc2cc(C(F)(F)F)ccc2N2CCOCC2)cc1 [3-(4-{[2-(morpholin-4-yl)-5-(trifluoromethyl)phenyl]sulfamoyl}phenyl)-1-(pyridin-3-ylmethyl)urea]	8		7	
O=C(NCc1cccnc1)Nc1ccc(S(=O)(=O)Nc2cc(C(F)(F)F)ccc2N2CCCCC2)cc1 [3-(4-{[2-(piperidin-1-yl)-5-(trifluoromethyl)phenyl]sulfamoyl}phenyl)-1-(pyridin-3-ylmethyl)urea]	5		22	
CC(C)Oc1ccccc1NS(=O)(=O)c1ccc(NC(=O)NCc2cccnc2)cc1 [3-(4-{[2-(propan-2-yloxy)phenyl]sulfamoyl}phenyl)-1-(pyridin] [3-(4-{[2-(propan-2-yloxy)phenyl]sulfamoyl}phenyl)-1-(pyridin-3-ylmethyl)urea]	2			15
O=C(NCc1cccnc1)Nc1ccc(S(=O)(=O)c2cc(OC(F)(F)F)ccc2Cl)cc1 [3-(4-{[2-chloro-5-(trifluoromethoxy)benzene]sulfonyl}phenyl)-1-(pyridin-3-ylmethyl)urea]	6.3		100 to 1000	
O=C(NCc1cccnc1)Nc1ccc(S(=O)(=O)c2cc(C(F)(F)F)ccc2Cl)cc1 [3-(4-{[2-chloro-5-(trifluoromethyl)benzene]sulfonyl}phenyl)-1-(pyridin-3-ylmethyl)urea]	5		339	
